{"source": "patent US20100062961A1", "about": "“Good Foaming Creamy or Paste-Like Cleansers Comprising Floor Levels of Long Chain Lipids or Lipid Mimics” (CONOPCO, INC., D/B/A UNILEVER, priority 2008, published 2010)", "key": {"[1]": {"assay": "Solubility of lipid in 5% surfactant solution, Method B absorbance at 500 nm", "format": "physicochemical", "conditions": "5% Miracare SLB, pH 6.0, Method B", "from_the_text": "Stock solutions of lipid in 5% surfactant solution were mixed in a beaker with an overhead mixer at a temperature above the melting point of the lipid for about an hour. The surfactant solution pH was adjusted to the desired range (usually 6 to 6.6) prior to addition of the lipid. Generally, the lipid concentrations in the stock solutions were at 1% to 2% by weight of solution. The stock solutions were allowed to cool to room temperature. These stock solutions were well above the solubility limit of the lipid as evidenced by considerable cloudiness. The stock solution was gently stirred to achieve a uniform suspension of the lipid insoluble matter, and then added to several small vials (approximately 20 ml capacity) in predetermined amounts. […] In some cases, we have determined solubility by analyzing a dilution series of samples using a UV-Vis 96 spectrophotometer (Spectra Max, Model 340pc). The samples of the dilution series were pipeted into a well plate reader and inserted into the spectrophotometer, which measured absorbance at a wavelength of 500 nm. The solubility limit was determined by extrapolating the absorbance readings to the baseline."}, "[2]": {"assay": "Solubility of lipid in 5% surfactant solution, Method A visual observation", "format": "physicochemical", "source_text": "(room temperature). The solubility is a function of pH, and increases with increasing pH, but the long chain fatty acids and other lipids (e.g., cholesterol and related sterols and ceramides) and lipid mimics (e.g., saturated long chain alcohols) still have limited solubility in the surfactant solutions, especially in the pH range of interest, pH less than or equal to 8. Solubility can be determined by visual observation of a series of solutions that were allowed to equilibrate at room temperature for approximately 48 hours. We also determined solubility by absorbance of light at a particular wavelength, where we have used a UV-Vis 96 spectrophotometer well plate reader (Spectra Max, 340 pc Model) with the wavelength set at 500 nm. […] The surfactant solution pH was adjusted to the desired range (usually 6 to 6.6) prior to addition of the lipid. […] In some cases, we have determined solubility by analyzing a dilution series of samples using a UV-Vis 96 spectrophotometer (Spectra Max, Model 340pc). The samples of the dilution series were pipeted into a well plate reader and inserted into the spectrophotometer, which measured absorbance at a wavelength of 500 nm. The solubility limit was determined by extrapolating the absorbance readings to the baseline. These values are reported in Table 2 as determined by Method B."}, "[3]": {"conditions": "typical anionic surfactant; cited from earlier work"}, "[4]": {"assay": "Krafft point: lowest temperature at which cloudiness is observed in a 1% by weight surfactant solution", "format": "physicochemical", "conditions": "1% by weight solution; upper bound, solution observed clear at stated temperature", "source_text": "The Krafft temperature is the minimum temperature at which surfactants form micelles. […] Below the Krafft temperature, there is no value for the critical micelle concentration (CMC), i.e., surfactant micelles will not form. A portion of the surfactant exists as a precipitate and the mixture of surfactant and water will appear cloudy or have an obvious phase settled at the bottom of a sample below the Krafft temperature. We consider only surfactants or mixtures of surfactants with Krafft temperatures at or below 20° C., so it suffices to verify that the surfactant mixtures of interest are completely soluble at 20° C. We verified this for the commercial surfactant solutions of interest. In particular, we have verified that the Krafft temperature for mixtures of sodium lauryl-1-ether sulfate and cocoamidopropyl betaine, and for mixtures of the commercial blend known as Miracare SLB lies below 20° C.\nOur operational definition of Krafft point here is the lowest temperature at which cloudiness is observed in a 1% by weight solution of surfactant. The table indicates the upper bound on Krafft point, i.e., solution observed to be clear at stated temperature."}}, "data": [{"compound": "CC(C)CCC[C@@H](C)[C@H]1CC[C@H]2[C@@H]3CC=C4C[C@@H](O)CC[C@]4(C)[C@H]3CC[C@]12C", "note": "[Cholesterol]", "values": [{"measurement": "Solubility Limit", "setting": "[1]", "value": "~5 × 10^−3 weight fraction of total solution"}]}, {"compound": "CCCCCCCCCCCC(=O)O", "note": "[Lauric acid]", "values": [{"measurement": "solubility", "setting": "[2]; in 5 wt. % SLES1EO/CAPBet solution", "value": "approximately 0.08 wt. %"}, {"measurement": "solubility as share of the surfactant weight", "setting": "[2]; in a 5 wt. % surfactant solution", "value": "approximately 16%"}]}, {"compound": "CCCCCCCCCCCCOS(=O)(=O)[O-].[Na+]", "note": "[sodium dodecyl sulfate]", "values": [{"measurement": "Krafft temperature", "setting": "[3]", "value": 18.4, "unit": "°C"}]}, {"compound": "Sodium tridecethsulfate [Trideceth Sulfate (TDS)]", "values": [{"measurement": "Krafft T", "setting": "[4]", "value": "<15", "unit": "°C"}]}]}
